{
  "source": "ChEMBL document CHEMBL1201862",
  "about": "“PubChem BioAssay data set” (2004)",
  "assay_in_all_cases": "NCI anticancer screen, dose series, 48 h",
  "key": {"[1]": {"test_system": "A498"}, "[2]": {"test_system": "SF-268"}, "[3]": {"test_system": "MDA-MB-435"}, "[4]": {"test_system": "NCI-H460"}, "[5]": {"test_system": "SF-539"}, "[6]": {"test_system": "KM12"}, "[7]": {"test_system": "786-0"}, "[8]": {"test_system": "SNB-19"}, "[9]": {"test_system": "SF-295"}, "[10]": {"test_system": "TK-10"}, "[11]": {"test_system": "MDA-N"}, "[12]": {"test_system": "SK-MEL-2"}, "[13]": {"test_system": "CCRF-CEM"}, "[14]": {"test_system": "UO-31"}, "[15]": {"test_system": "CAKI-1"}, "[16]": {"test_system": "U-251"}, "[17]": {"test_system": "UACC-62"}, "[18]": {"test_system": "HT-29"}, "[19]": {"test_system": "OVCAR-8"}, "[20]": {"test_system": "MCF7"}, "[21]": {"test_system": "MDA-MB-231"}, "[22]": {"test_system": "NCI-H23"}, "[23]": {"test_system": "Hs-578T"}, "[24]": {"test_system": "MOLT-4"}, "[25]": {"test_system": "SR"}, "[26]": {"test_system": "ACHN"}, "[27]": {"test_system": "NCI-H522"}, "[28]": {"test_system": "RPMI-8226"}, "[29]": {"test_system": "HCT-116"}, "[30]": {"test_system": "SK-MEL-28"}, "[31]": {"test_system": "Malme-3M"}, "[32]": {"test_system": "LOX IMVI"}, "[33]": {"test_system": "SK-MEL-5"}, "[34]": {"test_system": "UACC-257"}, "[35]": {"test_system": "RXF 393"}, "[36]": {"test_system": "DU-145"}, "[37]": {"test_system": "SW-620"}, "[38]": {"test_system": "HCT-15"}, "[39]": {"test_system": "PC-3"}, "[40]": {"test_system": "NCI/ADR-RES"}, "[41]": {"test_system": "OVCAR-5"}, "[42]": {"test_system": "IGROV-1"}, "[43]": {"test_system": "HOP-62"}, "[44]": {"test_system": "EKVX"}, "[45]": {"test_system": "OVCAR-3"}, "[46]": {"test_system": "OVCAR-4"}, "[47]": {"test_system": "SNB-75"}, "[48]": {"test_system": "COLO 205"}, "[49]": {"test_system": "BT-549"}, "[50]": {"test_system": "SN12C"}, "[51]": {"test_system": "K562"}, "[52]": {"test_system": "HCC 2998"}, "[53]": {"test_system": "M14"}, "[54]": {"test_system": "NCI-H226"}, "[55]": {"test_system": "A549"}, "[56]": {"test_system": "HL-60"}, "[57]": {"test_system": "SK-OV-3"}, "[58]": {"test_system": "T47D"}, "[59]": {"test_system": "HOP-92"}},
  "note": "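A five-concentration, 48-hour dose response in 96-well plates underlies each endpoint, interpolated linearly between surrounding concentrations. GI50 marks 50% less growth.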 The source made the active and inactive calls. Cut-off read from the data, not from the text of the source: active = GI50 up to about 1.1 µM and inactive = higher.",
  "data": [
    {"molecule": "CCCCCCCCCCCC(=O)NCc1ccc(OC(=O)CCCCCCCCCCC)c(OC)c1", "values": [
      {"measurement": "GI50", "setting": "[1]", "result": "> 100 µM (inactive)"},
      {"measurement": "GI50", "setting": "[2]", "result": "> 54.1 µM (inactive)"},
      {"measurement": "GI50", "setting": "[3]", "result": "> 75.2 µM (inactive)"},
      {"measurement": "GI50", "setting": "[4]", "result": "> 100 µM (inactive)"},
      {"measurement": "GI50", "setting": "[5]", "result": "3.56 µM (inactive)"},
      {"measurement": "GI50", "setting": "[6]", "result": "24.3 µM (inactive)"},
      {"measurement": "GI50", "setting": "[7]", "result": "> 100 µM (inactive)"},
      {"measurement": "GI50", "setting": "[8]", "result": "> 100 µM (inactive)"},
      {"measurement": "GI50", "setting": "[9]", "result": "> 66.4 µM (inactive)"},
      {"measurement": "GI50", "setting": "[10]", "result": "> 100 µM (inactive)"},
      {"measurement": "GI50", "setting": "[11]", "result": "61.4 µM (inactive)"},
      {"measurement": "GI50", "setting": "[12]", "result": "> 82.8 µM (inactive)"},
      {"measurement": "GI50", "setting": "[13]", "result": "1.34 µM (inactive)"},
      {"measurement": "GI50", "setting": "[14]", "result": "> 70 µM (inactive)"},
      {"measurement": "GI50", "setting": "[15]", "result": "> 100 µM (inactive)"},
      {"measurement": "GI50", "setting": "[16]", "result": "> 100 µM (inactive)"},
      {"measurement": "GI50", "setting": "[17]", "result": "> 96.4 µM (inactive)"},
      {"measurement": "GI50", "setting": "[18]", "result": "37.8 µM (inactive)"},
      {"measurement": "GI50", "setting": "[19]", "result": "67.9 µM (inactive)"},
      {"measurement": "GI50", "setting": "[20]", "result": "35.3 µM (inactive)"},
      {"measurement": "GI50", "setting": "[21]", "result": "> 100 µM (inactive)"},
      {"measurement": "GI50", "setting": "[22]", "result": "32.8 µM (inactive)"},
      {"measurement": "GI50", "setting": "[23]", "result": "56.4 µM (inactive)"},
      {"measurement": "GI50", "setting": "[24]", "result": "2.75 µM (inactive)"},
      {"measurement": "GI50", "setting": "[25]", "result": "11.1 µM (inactive)"},
      {"measurement": "GI50", "setting": "[26]", "result": "> 100 µM (inactive)"},
      {"measurement": "GI50", "setting": "[27]", "result": "2.63 µM (inactive)"},
      {"measurement": "GI50", "setting": "[28]", "result": "33.5 µM (inactive)"},
      {"measurement": "GI50", "setting": "[29]", "result": "65.2 µM (inactive)"},
      {"measurement": "GI50", "setting": "[30]", "result": "> 81.7 µM (inactive)"},
      {"measurement": "GI50", "setting": "[31]", "result": "> 100 µM (inactive)"},
      {"measurement": "GI50", "setting": "[32]", "result": "5.42 µM (inactive)"},
      {"measurement": "GI50", "setting": "[33]", "result": "> 63 µM (inactive)"},
      {"measurement": "GI50", "setting": "[34]", "result": "> 100 µM (inactive)"},
      {"measurement": "GI50", "setting": "[35]", "result": "> 100 µM (inactive)"},
      {"measurement": "GI50", "setting": "[36]", "result": "> 79.3 µM (inactive)"},
      {"measurement": "GI50", "setting": "[37]", "result": "> 100 µM (inactive)"},
      {"measurement": "GI50", "setting": "[38]", "result": "> 100", "unit": "µM"},
      {"measurement": "GI50", "setting": "[39]", "result": "15.1 µM (inactive)"},
      {"measurement": "GI50", "setting": "[40]", "result": "> 100 µM (inactive)"},
      {"measurement": "GI50", "setting": "[41]", "result": "> 100 µM (inactive)"},
      {"measurement": "GI50", "setting": "[42]", "result": "4.21 µM (inactive)"},
      {"measurement": "GI50", "setting": "[43]", "result": "> 100 µM (inactive)"},
      {"measurement": "GI50", "setting": "[44]", "result": "> 100 µM (inactive)"},
      {"measurement": "GI50", "setting": "[45]", "result": "31.9 µM (inactive)"},
      {"measurement": "GI50", "setting": "[46]", "result": "34.2 µM (inactive)"},
      {"measurement": "GI50", "setting": "[47]", "result": "> 100 µM (inactive)"},
      {"measurement": "GI50", "setting": "[48]", "result": "35.6 µM (inactive)"},
      {"measurement": "GI50", "setting": "[49]", "result": "> 100 µM (inactive)"},
      {"measurement": "GI50", "setting": "[50]", "result": "> 88.3 µM (inactive)"},
      {"measurement": "GI50", "setting": "[51]", "result": "> 83 µM (inactive)"},
      {"measurement": "GI50", "setting": "[52]", "result": "> 64.6 µM (inactive)"},
      {"measurement": "GI50", "setting": "[53]", "result": "32.7 µM (inactive)"},
      {"measurement": "GI50", "setting": "[54]", "result": "> 100 µM (inactive)"},
      {"measurement": "GI50", "setting": "[55]", "result": "> 100 µM (inactive)"},
      {"measurement": "GI50", "setting": "[56]", "result": "6.07 µM (inactive)"},
      {"measurement": "GI50", "setting": "[57]", "result": "> 100 µM (inactive)"},
      {"measurement": "GI50", "setting": "[58]", "result": "32.2 µM (inactive)"},
      {"measurement": "GI50", "setting": "[59]", "result": "> 100 µM (inactive)"}
    ]}
  ]
}
